# Patent US20220372014A1, “NEUROPROTECTIVE COMPOUNDS AND METHODS OF USE THEREOF” (The Johns Hopkins University, priority 2019, published 2022)
# Where a SMILES comes first, the peptide text is derived from it. The star is where a group is joined. Cbz = O=C(OCc1ccccc1)*; CH2F = FC*
# Key:
# HT 22 cells = experiment: TNF-α and z-VAD-induced necroptosis, Alamar blue; assay type: cell-based; conditions: 1 ng/ml TNF-α with 50 μM z-VAD
# Description: (§1) Graphs represent mean±s.e.m. ***P<0.0005, two-way ANOVA followed by Tukey's post hoc test (n=3). A PARP inhibitor, ABT-888 is used for the positive control. FIGS. 12B and 12C show in vitro oxidoreductase and tautomerase activity of MIF/PAAN with compound 41, 56, 76, or 77. FIGS. 12D and 12E show Alamar blue cell viability assay from SH-SY5Y cells pre-incubated with compound 41, 56, 76, or 77 in response to 0.5 μM staurosporine (STS) or from HT 22 cells incubated with 1 ng/ml of TNF-α with 50 μM z-VAD. A pan caspase inhibitor, z-VAD or necrostatin (Nec-1) is used for the positive control and PARP inhibitor, ABT-888 is used for negative control. Bars represent mean±s.e.m. ***P<0.0005, two-way ANOVA followed by Tukey's post hoc test (n=3). […] Bars represent mean±s.e.m. **P<0.005, ***P<0.0005, two-way ANOVA followed by Tukey's post hoc test (n=3).
# (§2) FIGS. 14A-14G show the characterization of compound 121. […] Bars represent means±s.e.m. ***P<0.0005, two-way ANOVA followed by Tukey's post hoc test (n=4). […] Bars represent mean±s.e.m. ***P<0.0005, two-way ANOVA followed by Tukey's post hoc test (n=4). […] Bars represent means±s.e.m. **P<0.005, ***P<0.0005, one-way ANOVA followed by Tukey's post hoc test (n=3). […] Bar represent mean±s.e.m. ***P<0.0005, one-way ANOVA followed by Tukey's post hoc test (n=3). […] Quantification of inhibition of PARP-1 activity by compound 56, compound 121 and ABT-888 is shown. Graphs represent mean±s.e.m. ***P<0.0005, two-way ANOVA followed by Tukey's post hoc test (n=3). FIGS. 14F and 14G show Alamar blue cell viability assay from SH-SY5Y cells pre-incubated with either compound 56 or 121 in response to (14F) 0.5 μM staurosporine (STS) or (14G) from HT 22 cells incubated with 1 ng/ml of TNF-α with 50 μM z-VAD. Bars represent mean±s.e.m. ***P<0.0005, two-way ANOVA followed by Tukey's post hoc test (n=5).
# (§3) Cell death and viability assessment. Primary cultured cortical neurons were treated with 5 μg/ml of α-syn PFF for 14 days and cell death was determined by staining of all nuclei with 7 μM Hoechst 33342 and dead cell nuclei with 2 μM propidium iodide (PI) (Invitrogen). The numbers of total and dead cells were counted with the Axiovision 4.6 software (Carl Zeiss). Cell viability was determined by fluorescence at an excitation wavelength 570 nm and an emission wavelength 585 nm using Alamar Blue (Invitrogen).
# SH-SY5Y cells [1] = experiment: Staurosporine (STS)-induced apoptotic cell death, Alamar blue; assay type: cell-based; conditions: 0.5 μM STS
# Description: as §1, §2, §3
# cortical neurons = experiment: Nuclear translocation of AIF and PAAN/MIF after α-syn PFF treatment in cortical neurons (subcellular fractionation); assay type: cell-based, mouse; conditions: primary neuronal cultures
# Text: FIGS. 3A-3H show PAAN/MIF nuclease activity is required for prevention of α-syn PFF-induced neurotoxicity in neurons. […] See Donawho, et al. (2007) Clin. Cancer Res. 13:2728-37. Intensity of PAAN/MIF and AIF signal is shown in the graph. **P<0.005 versus the PBS control group in the nuclear (N) fraction, two-way ANOVA followed by Tukey's post hoc test. […] Intensity of AIF-bound PAAN/MIF is shown in the graph. *P<0.05, student's t-test. […] Scale bars, 20 μm. The white color in the merged images indicates the overlay of AIF, PAAN/MIF and Hoechst dye in the nucleus. The percentage of cells with nuclear localization of PAAN/MIF and AIF is shown in the graph. ***P<0.0005, student's t-test. […] Intensity of noncleaved genomic DNA is shown in the graph. ***P<0.0005, two-way ANOVA. […] Scale bar, 20 μm. […] Bars represent mean±s.e.m. ***P<0.0005, two-way ANOVA followed by Tukey's post hoc test (n=3). […] Bars represent mean±s.e.m. ***P<0.0005, two-way ANOVA followed by Tukey's post hoc test (n=5). […]
# Subcellular fractionation. Subcellular fraction and quantification of relative levels of AIF and PAAN/MIF were performed as previously described. […] Each fractions were monitored by PARP-1 antibody (BD) for the nuclear fraction and HSP60 antibody (cell signaling) for the postnuclear fraction.
# SH-SY5Y cells [2] = experiment: MNNG-induced parthanatic cell death in SH-SY5Y cells (Alamar blue cell viability); assay type: cell-based; conditions: 50 μM MNNG for 15 min, viability after 24 h
# Text: We developed an assay to screen for PAAN/MIF nuclease inhibitors. Single-stranded PAAN/MIF nuclease DNA substrate (FIG. 10A) was amine modified on the 5′ end and immobilized on a plate. Hybridization with a biotin-labeled complementary oligonucleotide followed by addition of streptavidin conjugated horseradish peroxidase enzyme (HRP) leads to retention of HRP on the surface within each well in the presence of intact PAAN/MIF nuclease DNA substrate, which can be quantitatively detected through colorimetric change at 450 nm using the HRP substrate 3,3′,5,5′-tetramethylbenzidine (TMB). In the presence of WT PAAN/MIF, there is reduced signal, indicative of cleavage of the PAAN/MIF nuclease substrate, while the signal is not attenuated without recombinant PAAN/MIF (FIGS. 1 and 10B). […] Thus, the rapafucin library containing 45,000 macrocyclic compounds in 3,000 pools of 15 compounds was screened using this assay. […] Several pools were identified that inhibit PAAN/MIF nuclease activity from the primary screen (FIG. 4A). […] Nine pools of compounds were identified that both inhibit PAAN/MIF cleavage of the substrate and protect against MNNG-induced parthanatic cell death by greater than 70% (FIG. 10D). […] Next, the 90 individual compounds in the 6 pools were synthesized and further assessed for inhibition of PAAN/MIF nuclease activity and MNNG-induced parthanatic cell death. Among them 12 compounds (compounds 16-18, 26-28, 41, 56, 66, 67, 76, and 77) were identified that block MIF nuclease activity and MNNG-induced parthanatic cell death by greater than 60% (FIG. 10F). Dose dependence (0.1 to 1.0 μM) were assessed for the 12 compounds against MNNG-induced parthanatic cell death (FIG. 11A and Table 2) and inhibition of PAAN MIF nuclease activity against the RF (FIG. 111B) and PS30 substrates (FIG. 11C).
# Cell culture, transfection, primary neuronal culture and treatment. SH-SY5Y cells (ATCC) were cultured in DMEM containing 10% fetal bovine serum and penicillin/streptomycin at 37° C. under 5% C02. The cells were transfected using PolyFect reagent (Qiagen). Parthanatos was induced by the treatment of 50 μM MNNG for 15 min in SH-SY5Y cells. ABT-888 or PAAN/MIF inhibitors were pretreated with indicated concentration 1 h before MNNG treatment and cell death were assessed after 24 h. Primary cortical neurons from WT, PAAN/MIF KO, E22Q KI or P1G KI embryos were prepared as previously described See Kam et al. (2018) Science 362:eaat8407. Briefly, the cortex was dissected and cultured at embryonic day 16 in neurobasal media supplemented with B-27, 0.5 mM L-glutamine, penicillin and streptomycin (Invitrogen). Primary neurons were infected with AAV2-control, AAV2-PAAN/MIF WT, AAV2-PAAN/MIF E22Q, AAV2-PAAN/MIF E22A or AAV2-MIF P1G (ViGene Biosciences) at days in vitro (DIV) 4-5. ABT-888 or PAAN/MIF inhibitors were applied to neurons 1 h before α-syn PFF treatment. The neuron growth medium was replaced with fresh medium alone or including inhibitors every 3-4 days. α-syn PFF was added at DIV 7 and further incubated for indicated times followed by the cell death assay or biochemical experiments.
# as §3, with “Blue (Invitrogen). […]” for “Blue (Invitrogen).”
# MIF = biological target: T1, MIF (Homo sapiens, UniProt P14174); experiment: Nuclease assay of Example 3 (MIF inhibitory activity, Table 4); assay type: biochemical; set-up: (%) inhibition of MIF nuclease activity: concentration or dose not given beside the values; conditions: for (%) inhibition of MIF nuclease activity: nuclease assay of Example 3
# T1 sequence (P14174 1-115): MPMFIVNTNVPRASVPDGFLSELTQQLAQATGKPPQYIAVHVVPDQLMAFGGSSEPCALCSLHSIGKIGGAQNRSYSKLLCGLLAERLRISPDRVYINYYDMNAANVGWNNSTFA
# Outline: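 Human genomic DNA (200 ng), pcDNA (200 ng) or PS^30-type substrates (1 μM) were incubated with MIF (0.25-8 μM final) in 10 mM Tris-HCl pH 7.0, 10 mM MgCl2, 1 mM DTT at 37 °C for 1 h (pcDNA, small substrates) or 4 h (genomic DNA). Cleavage was assessed by agarose or PAGE electrophoresis with EtBr staining and chemiluminescent detection of biotin-labelled DNA.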
# [3] = system: HeLa cells or neuronal cells; experiment: Cell death assay of Example 3 (MNNG, alamarBlue; protection against parthanatos, Table 4); assay type: cell-based; conditions: 1 μM test compound; for (%) inhibition of cell death: MNNG-induced cell death, alamarBlue
# Outline: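 HeLa or neuronal cells (1×10^4/well) were pretreated 1 h at 37° C with 1 μM compound, exposed to MNNG for 15 min, washed, then re-incubated 18 h with 1 μM compound. Viability was read by alamarBlue fluorescence (ex 560/em 590 nm). Cell death was expressed relative to control wells.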
compound,measurement,setting,value
"CN1C(=O)C(Cc2c[nH]c3ccccc23)NC1=S (centres unmarked) [Nec-1, necrostatin, reference compound]",TNFα and Z-VAD-induced necroptosis,HT 22 cells,prevents
"CC(NC(=O)C(NC(=O)OCc1ccccc1)C(C)C)C(=O)NC(CC(=O)O)C(=O)CF (stereo not drawn) [Z-VAD, reference compound] (Cbz-Val-Ala-Asp-CH2F; configuration not given here)",staurosporine (STS)-induced apoptotic cell death,SH-SY5Y cells [1],prevents
"C[C@]1(c2nc3c(C(N)=O)cccc3[nH]2)CCCN1 [ABT-888, reference compound]",staurosporine (STS)-induced apoptotic cell death,SH-SY5Y cells [1],do not inhibit
same,TNFα and Z-VAD-induced necroptosis,HT 22 cells,not prevented
same,α-syn PFF-induced nuclear translocation of PAAN/MIF and AIF,cortical neurons,attenuated
"C=CC[C@@H]1/C=C(\C)C[C@H](C)C[C@H](OC)[C@H]2O[C@@](O)(C(=O)C(=O)N3CCCC[C@H]3C(=O)O[C@H](/C(C)=C/[C@@H]3CC[C@@H](O)[C@H](OC)C3)[C@H](C)[C@@H](O)CC1=O)[C@H](C)C[C@@H]2OC [FK506, reference compound]",inhibition of MNNG-induced parthanatic cell death,SH-SY5Y cells [2],failed to inhibit
"CO[C@H]1C[C@@H]2CC[C@@H](C)[C@@](O)(O2)C(=O)C(=O)N2CCCC[C@H]2C(=O)O[C@H]([C@H](C)C[C@@H]2CC[C@@H](O)[C@H](OC)C2)CC(=O)[C@H](C)/C=C(\C)[C@@H](O)[C@@H](OC)C(=O)[C@H](C)C[C@H](C)/C=C/C=C/C=C/1C [rapamycin, reference compound]",inhibition of MNNG-induced parthanatic cell death,SH-SY5Y cells [2],failed to inhibit
COc1ccc(OC)c(OC)c1CC[C@H]1OC(=O)[C@@H]2CCCCN2C(=O)C(=O)C(C)(C)COC(=O)C=CCCN(C)C(=O)[C@@H]2CCCN2C(=O)[C@H](COC(C)(C)C)N(C)C(=O)C(c2ccccc2)NC(=O)[C@H](C)N(C)C(=O)COc2cccc1c2 (some centres unmarked) [compound 123],MIF nuclease activity,MIF,do not inhibit MIF nuclease activity
same,(%) inhibition of MIF nuclease activity,MIF,−5.1%
same,protection against parthanatos (cell death),[3],protect against parthanatos
same,(%) inhibition of cell death,[3],82.4%
COc1ccc(CC[C@H]2OC(=O)[C@@H]3CCCCN3C(=O)C(=O)C(C)(C)COC(=O)C=CCCN(C)C(=O)[C@@H]3CCCN3C(=O)[C@H](COC(C)(C)C)N(C)C(=O)C(c3ccccc3)NC(=O)CN(C)C(=O)COc3cccc2c3)cc1OC (some centres unmarked) [compound 107],(%) inhibition of MIF nuclease activity,MIF,20.0%
same,(%) inhibition of cell death,[3]; 1 µM,15.1%
CCC[C@@H]1NC(=O)[C@H](Cc2ccccc2)N(C)C(=O)[C@@H](C)NC(=O)CN(C)C(=O)COc2cccc(c2)[C@@H](CCc2ccc(OC)c(OC)c2)OC(=O)[C@@H]2CCCCN2C(=O)C(=O)C(C)(C)COC(=O)C=CCCN(C)C1=O [compound 64],(%) inhibition of MIF nuclease activity,MIF,27.2%
same,(%) inhibition of cell death,[3],52.3%
COCC[C@@H]1NC(=O)[C@H](Cc2ccccc2)N(C)C(=O)[C@@H](C)NC(=O)CN(C)C(=O)COc2cccc(c2)[C@@H](CCc2ccc(OC)c(OC)c2)OC(=O)[C@@H]2CCCCN2C(=O)C(=O)C(C)(C)COC(=O)C=CCCN(C)C1=O [compound 65],(%) inhibition of MIF nuclease activity,MIF,20.1%
same,(%) inhibition of cell death,[3],54.4%
